PubChem BioAssay (NCI)
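Tested at 5 concentrations; 48 h exposure; 96-well plates; endpoints linearly interpolated, else capped at highest concentration. Here, GI50 denotes the concentration required for 50% inhibition of growth. TGI: concentration producing complete growth inhibition.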

Tests used:
Assay in all cases: NCI anticancer screen, dose series, 48 h
[1] = tested on: MOLT-4 leukemia
[2] = tested on: A549 NSCLC
[3] = tested on: NCI-H23 lung
[4] = tested on: SN12C renal
[5] = tested on: SK-MEL-2 melanoma
[6] = tested on: PC-3 prostate
[7] = tested on: SW-620 colon
[8] = tested on: BT-549 breast
[9] = tested on: HCC-2998 colon
[10] = tested on: MCF7 breast

Row | Structure (SMILES) | TGI [1] | TGI [2] | TGI [3] | TGI [4] | TGI [5] | TGI [6] | TGI [7] | TGI [8] | TGI [9] | TGI [10] | GI50 [1] | GI50 [2] | GI50 [9] | GI50 [10] | GI50 [3] | GI50 [7] | GI50 [4]
1 | COC1=NCc2ccccc2-c2ccccc21 | > 100 µM | > 100 µM | > 100 µM | > 100 µM | > 100 µM |  |  |  |  |  |  |  |  |  |  |  | 
2 | CC1=NNC(=O)C1C1C(=O)NN=C(c2c[nH]c3ccccc23)C1Br (stereo unspecified) | 80.3 µM | > 100 µM | > 100 µM | > 100 µM | 84.8 µM | > 100 µM | > 100 µM | > 100 µM |  |  |  |  |  |  |  |  | 
3 | CN(C)CCNc1ccc2c(=O)n(CCN(C)C)c(=O)n3c4ccc(O)cc4c(=O)c1c23 | < 0.01 µM | 1.47 µM | 0.186 µM |  | 0.602 µM | 4.52 µM | 0.67 µM | 2.35 µM | 0.186 µM | 0.634 µM |  |  |  |  |  |  | 
4 | Cc1ccc(C(=N)c2ccccc2Cc2cccc3ccccc23)c2ccccc12 | > 100 µM | > 100 µM | > 100 µM | > 100 µM | > 100 µM | > 100 µM | > 100 µM | > 100 µM |  | > 100 µM |  |  |  |  |  |  | 
5 | C1=C(c2ccccc2)SC(N2CCCCC2)S1 (stereo unspecified) | > 100 µM |  | > 100 µM | > 100 µM | > 100 µM |  | > 100 µM |  |  |  |  |  |  |  |  |  | 
6 | COC(=O)C1(NC(=O)C(CC(=O)OCc2ccccc2)NC(=O)OCc2ccccc2)CCCCCC1 (stereo unspecified) | > 100 µM | > 100 µM | > 100 µM |  |  | > 100 µM | > 100 µM | 61.5 µM |  | > 100 µM |  |  |  |  |  |  | 
7 | C/C(CC(O)(C(F)(F)F)C(F)(F)F)=N\NC(N)=O | > 10 µM | > 10 µM | > 10 µM | > 10 µM | > 10 µM | > 10 µM | > 10 µM |  | > 10 µM | > 10 µM |  |  |  |  |  |  | 
8 | O=C(Nc1ccccc1)N(C1=NCC(CI)S1)c1ccc(F)c(F)c1 (stereo unspecified) | 61.4 µM | > 100 µM | > 100 µM | > 100 µM | 60.5 µM | > 100 µM | > 100 µM |  | > 100 µM | > 100 µM |  |  |  |  |  |  | 
9 | COc1cc2c(c3c1c(=O)c1ccccc1n3C)C=CC1(CCCC1)O2 | > 100 µM | 47.1 µM | 28.6 µM | 37.2 µM | 33.6 µM |  | 37.2 µM | 25.5 µM | 37.7 µM | 39.4 µM |  |  |  |  |  |  | 
10 | CCCCCOc1ccc(C=Nc2ccc(CCc3ccc(N=Cc4ccc(OCCCCC)cc4)cc3)cc2)cc1 | > 100 µM | > 100 µM | > 100 µM | > 100 µM | > 100 µM |  | > 100 µM |  | > 100 µM | > 100 µM |  |  |  |  |  |  | 
11 | Cc1ccc(C)c(NC(=O)C(=O)C(C(=O)c2ccc3ccccc3c2)C2OC(=O)c3ccccc32)c1 (stereo unspecified) | > 100 µM | 45.7 µM | 54.8 µM | 39.8 µM | 44.7 µM |  | 29.4 µM |  | 28.7 µM |  |  |  |  |  |  |  | 
12 | O=C1C=CC(=O)c2c1ccc1c3ccccc3n(Cc3ccc([N+](=O)[O-])cc3)c21 | 54.2 µM | > 100 µM | > 100 µM | > 100 µM |  | > 100 µM | > 100 µM | > 100 µM | > 100 µM | > 100 µM |  |  |  |  |  |  | 
13 | Cc1ccc(S(=O)(=O)NC(=O)Nc2nnc(S(N)(=O)=O)s2)cc1 | > 100 µM | > 100 µM | > 100 µM |  | > 100 µM | > 100 µM | > 100 µM |  | > 100 µM | > 100 µM |  |  |  |  |  |  | 
14 | Cc1cc([NH-])c([NH-])cc1C.[Cl][Pt+2][Cl] | 41.6 µM | > 100 µM | 37 µM | 24.6 µM |  |  | 27 µM |  | 99.1 µM | 25.2 µM | 5.07 µM | 49 µM | > 44.8 µM | 7.37 µM | 14.2 µM | 5.06 µM | 8.13 µM
15 | N#CCCN(CCC#N)c1ccc(/C=C2\N=C(c3ccccc3)N(c3ccc(F)cc3)C2=O)cc1 | > 100 µM | > 100 µM |  | > 100 µM | > 100 µM | > 100 µM | > 100 µM | > 100 µM |  | > 100 µM |  |  |  |  |  |  | 
16 | O=c1[nH]/c(=C/c2ccc(OCc3ccccc3)cn2)c(=O)[nH]/c1=C/c1ccccc1 | > 100 µM | > 100 µM |  |  | > 100 µM | > 100 µM | > 100 µM | > 100 µM | 0.521 µM | > 100 µM |  |  |  |  |  |  | 
17 | CSc1ncc2c(n1)C(C#N)C1Sc3ccccc3N1C2=O (stereo unspecified) | > 100 µM | > 100 µM | > 100 µM | > 100 µM |  |  | > 100 µM | > 100 µM |  |  |  |  |  |  |  |  | 
18 | C=CCC1(C#N)C(=S)NC2=C(C(=O)CC(C)(C)C2)C1c1ccccc1 (stereo unspecified) | > 100 µM | > 100 µM | > 100 µM | > 100 µM | > 100 µM | > 100 µM | > 100 µM | > 100 µM |  |  |  |  |  |  |  |  | 
19 | C[C@H](c1ccccc1)N1C(=O)[C@@H](O)[C@H]1[C@H](CO)OCc1ccccc1 | > 100 µM | > 100 µM | > 100 µM | > 100 µM | > 100 µM | > 100 µM | > 100 µM |  |  | > 100 µM |  |  |  |  |  |  | 

Row | Structure (SMILES) | TGI [1] | TGI [2] | TGI [3] | TGI [4] | TGI [5] | TGI [6] | TGI [7] | TGI [8] | TGI [9] | TGI [10] | GI50 [1] | GI50 [2] | GI50 [9] | GI50 [10] | GI50 [3] | GI50 [7] | GI50 [4]
20 | Cc1ccc2nc(SCC(=O)N=Nc3c(O)[nH]c4ccccc34)n(-c3ccccc3)c(=O)c2c1 | 33.2 µM | 28.6 µM | 33.1 µM | 29.1 µM | 13.2 µM | 36.1 µM | 61.4 µM |  | 28.6 µM | 29.6 µM |  |  |  |  |  |  | 
21 | CCO/C(=N/S(=O)(=O)C(F)(F)F)N(C(C)C)C(C)C | > 100 µM | > 100 µM | > 100 µM | > 100 µM | > 100 µM | > 100 µM | > 100 µM | > 100 µM |  | > 100 µM |  |  |  |  |  |  | 
22 | NC(=O)Nc1c(Cl)cc(S(N)(=O)=O)cc1Cl | > 100 µM | > 100 µM | > 100 µM | > 100 µM | > 100 µM |  | > 100 µM | > 100 µM |  | > 100 µM |  |  |  |  |  |  | 
23 | Cc1ccc2c(c1)-c1nc(N)c(C#N)c(-c3ccc(Cl)cc3)c1CCS2(=O)=O |  | > 100 µM | > 100 µM | > 100 µM | > 100 µM | > 100 µM | > 100 µM | > 100 µM | > 100 µM |  |  |  |  |  |  |  | 
24 | C#CCNC(CSSCC(N)C(=O)O)C(=O)O (stereo unspecified) | > 100 µM | > 100 µM | > 100 µM |  | > 100 µM | > 100 µM | > 100 µM |  | > 100 µM | > 100 µM |  |  |  |  |  |  | 
25 | CCNCCNC(=O)c1ccc(I)cc1 | > 100 µM | > 100 µM | > 100 µM | > 100 µM |  | > 100 µM | > 100 µM | > 100 µM | > 100 µM | > 100 µM |  |  |  |  |  |  | 
26 | CC12CCC(CC(=O)/C1=C(/Br)I)C2(C)C (stereo unspecified) | 23.9 µM | 29.3 µM | 27.9 µM | 29.6 µM | 30.3 µM | 23.6 µM | 34.4 µM |  |  |  |  |  |  |  |  |  | 
27 | COc1cc(C2c3c(ccc4ccccc34)C(=O)C3CCC(=O)N32)cc(OC)c1OC (stereo unspecified) | > 50 µM | > 50 µM | > 50 µM | > 50 µM | > 50 µM | > 50 µM | > 50 µM | > 50 µM |  | > 50 µM |  |  |  |  |  |  | 
28 | CC(N=NNc1ccc(-c2nc3ccccc3[nH]2)cc1)C(=O)O (stereo unspecified) | > 100 µM | > 100 µM | > 100 µM | > 100 µM | > 100 µM | > 100 µM | > 100 µM | 57.6 µM |  | 34.1 µM |  |  |  |  |  |  | 
29 | CN1CCN(C(=S)N(C)C(=O)c2ccco2)CC1 | > 100 µM | > 100 µM | > 100 µM | > 100 µM | > 100 µM |  | > 100 µM | > 100 µM | > 100 µM | > 100 µM |  |  |  |  |  |  | 
30 | COc1cc2c(c(O)c1O)C(=O)C1CCC(=O)N1C2c1cccc2ccccc12 (stereo unspecified) | > 50 µM | > 50 µM | > 50 µM | > 50 µM | > 50 µM | > 50 µM | > 50 µM | > 50 µM |  | > 50 µM |  |  |  |  |  |  | 
31 | c1ccc(-c2csc3c4ccccc4c4ccccc4[n+]23)cc1 | > 25.5 µM | 19.5 µM | 11.9 µM | 11.2 µM | 7.71 µM |  | 17.4 µM |  | 13 µM |  |  |  |  |  |  |  | 
32 | N=C1C(=N)c2ccccc2-c2ccccc21.[Cl-].[Ru+2].c1ccc(-c2ccccn2)nc1.c1ccc(-c2ccccn2)nc1 | > 100 µM | > 100 µM | > 100 µM | > 100 µM | > 100 µM |  | > 100 µM |  | > 100 µM |  |  |  |  |  |  |  | 
33 | C[C@@]1(O)C2CC3CC1(c1ccccc1)CC(/C3=N/O)/C2=N\O (stereo partly specified) | > 100 µM | > 100 µM | > 100 µM | > 100 µM | > 100 µM | > 100 µM | > 100 µM |  | > 100 µM |  |  |  |  |  |  |  | 
34 | CNC(C)(C)Cc1ccc(Cl)cc1 | > 100 µM | > 100 µM | > 100 µM | > 100 µM | > 100 µM |  | > 100 µM |  | > 100 µM |  |  |  |  |  |  |  | 
35 | NC(=O)CNC(=O)[C@@H]1CC(OCCC(=O)O)CN1C(=O)C1CCCN1C(=O)OCc1ccccc1 (stereo partly specified) | > 100 µM | > 100 µM | > 100 µM | > 100 µM | > 100 µM | > 100 µM | > 100 µM | > 100 µM |  | > 100 µM |  |  |  |  |  |  | 
36 | CCn1nc(C)c2c1C(=O)NCC(=O)N2 |  | > 100 µM | > 100 µM | > 100 µM |  | > 100 µM | > 100 µM | > 100 µM |  |  |  |  |  |  |  |  | 
37 | c1ncn(C23C4C5C6C4C2C6C53)n1 (stereo unspecified) | > 100 µM | > 100 µM | > 100 µM | > 100 µM | > 100 µM | > 100 µM | > 100 µM |  | > 100 µM | > 100 µM |  |  |  |  |  |  | 
